Data: article PMC8708872, “Discovery of a Novel Template, 7-Substituted 7-Deaza-4′-Thioadenosine Derivatives as Multi-Kinase Inhibitors” (Pharmaceuticals, 2021)

Assays:
[1] = tested on: SK-HEP-1; test: SRB cell proliferation inhibition assay; format: cell-based; conditions: SK-HEP1, human liver cancer cells, 72 h
Experimental: (§1) Human lung cancer cells (A549), colorectal cancer (HCT116) cells, breast cancer cells (MDA-MB-231), liver cancer cells (SK-HEP-1), and prostate cancer cells (PC-3) were purchased from the American Type Culture Collection (Manassas, VA, USA). Human gastric cancer cells (SNU-638) were purchased from the Korean Cell Line Bank (Seoul, Korea). Cells were cultured in medium (Dulbecco’s modified Eagle’s medium for MDA-MB-231 and SK-HEP-1 cells; Roswell Park Memorial Institute 1640 for A549, HCT116, SNU-638, PC-3 cells) supplemented with penicillin-streptomycin and 10% fetal bovine serum at 37 °C in a humidified incubator with 5% carbon dioxide. Cells were seeded at a density of 4–7 × 10^4 cells/mL in 96-well culture plates, and then treated with indicated compounds for 72 h. At the end of the experiment, cells were fixed with 10% trichloroacetic acid (TCA) solution and subjected to sulforhodamine B (SRB) assay to determine cell proliferation. The percentage of cell proliferation was calculated with the following formula:Cell proliferation (%) = 100 × [(A treated − A zero day)/(A control − A zero day)], where A is the average absorbance. The IC50 values were calculated through non-linear regression analysis using TableCurve 2D v5.01 (Systat Software Inc., San Jose, CA, USA). All experiments were performed in triplicate and data shown are representative of two or three independent experiments.

[2] = tested on: HCT116; test: SRB cell proliferation inhibition assay; format: cell-based; conditions: HCT-116, human colon cancer cells, 72 h
Experimental: as §1

[3] = tested on: SNU638; test: SRB cell proliferation inhibition assay; format: cell-based; conditions: SNU-638, human stomach cancer cells, 72 h
Experimental: as §1

[4] = tested on: PC-3; test: SRB cell proliferation inhibition assay; format: cell-based; conditions: human prostate cancer cells, 72 h
Experimental: as §1

[5] = tested on: A549; test: SRB cell proliferation inhibition assay; format: cell-based; conditions: human lung cancer cells, 72 h
Experimental: as §1

[6] = tested on: MDA-MB-231; test: SRB cell proliferation inhibition assay; format: cell-based; conditions: human breast cancer cells, 72 h
Experimental: as §1

[7] = Metabolic stability in human liver microsomes; format: in vitro ADME; conditions: % remaining during 30 min, 1 μM
[8] = target: T1, CYP3A4 (Homo sapiens, UniProt P08684); test: CYP inhibition assay; format: in vitro ADME; conditions: human liver microsomes
T1 construct: Human liver microsomes (0.25 mg/mL); from tissue; host or cells: human liver microsomes

[9] = tested on: KM12; test: Antiproliferative activity against KM12; format: cell-based; conditions: Homo sapiens, colon cancer cell line highly expressing NTRK1/2/3 and DYRK3, read-out: IC50 cell growth of KM12
[10] = target: T2, AXL (Homo sapiens, UniProt P30530); test: Kinome scan; format: binding; conditions: 1000 nM
T2 construct: purchased Eurofins DiscoverX Corporation
Experimental: (§2) The kinome scan assays were carried out at Eurofins DiscoverX Corporation. For kinome scan profiling of compound 1g, it was screened at 1μM against 96 kinases (N = 2 independent experiments). The results for binding interactions are reported as % inhibition, where higher values indicate strong affinity; see the Supporting Information, Table S1 for full kinome profile.

[11] = target: T3, ABL1(T315I)-phosphorylated (Homo sapiens, UniProt P00519, T315I); test: Kinome scan; format: binding; conditions: 1000 nM
T3 construct: purchased Eurofins DiscoverX Corporation
Experimental: as §2

[12] = target: T4, p38-beta (Homo sapiens, UniProt Q15759); test: Kinome scan; format: binding; conditions: 1000 nM
T4 construct: purchased Eurofins DiscoverX Corporation
Experimental: as §2

[13] = target: T5, ABL1-nonphosphorylated (Homo sapiens, UniProt P00519); test: Kinome scan; format: binding; conditions: 1000 nM
T5 construct: purchased Eurofins DiscoverX Corporation
Experimental: as §2

[14] = target: T6, PLK4 (Homo sapiens, UniProt O00444); test: Kinome scan; format: binding; conditions: 1000 nM
T6 construct: purchased Eurofins DiscoverX Corporation
Experimental: as §2

[15] = target: T7, KIT (Homo sapiens, UniProt P10721); test: Kinome scan; format: binding; conditions: 1000 nM
T7 construct: purchased Eurofins DiscoverX Corporation
Experimental: as §2

[16] = target: T8, FAK (Homo sapiens, UniProt Q05397); test: Kinome scan; format: binding; conditions: 1000 nM
T8 construct: purchased Eurofins DiscoverX Corporation
Experimental: as §2

[17] = target: T9, BRAF (Homo sapiens, UniProt P15056); test: Kinome scan; format: binding; conditions: 1000 nM
T9 construct: purchased Eurofins DiscoverX Corporation
Experimental: as §2

[18] = target: T10, PIK3C2B (Homo sapiens, UniProt O00750); test: Kinome scan; format: binding; conditions: 1000 nM
T10 construct: purchased Eurofins DiscoverX Corporation
Experimental: as §2

[19] = target: T11, MEK1 (Homo sapiens, UniProt Q02750); test: Kinome scan; format: binding; conditions: 1000 nM
T11 construct: purchased Eurofins DiscoverX Corporation
Experimental: as §2

[20] = target: T12, AURKA (Homo sapiens, UniProt O14965); test: Kinome scan; format: binding; conditions: 1000 nM
T12 construct: purchased Eurofins DiscoverX Corporation
Experimental: as §2

[21] = tested on: cancer cells; test: Antiproliferative activity against cancer cells (six lines, SRB); format: cell-based; conditions: Homo sapiens; range over the six cancer cell lines of Table 1
Experimental: as §1

[22] = tested on: human normal dermal fibroblast cells; test: Antiproliferative activity against normal cells; format: cell-based; conditions: cultured human normal primary dermal fibroblast cells; read-out: IC50 growth inhibition, normal dermal fibroblast cells
[23] = target: T13, DYRK1A (Homo sapiens, UniProt Q13627); test: Kinase inhibition profile, KINOMEscan 11-point dose response; format: binding
T13 construct: purchased Eurofins DiscoverX Corporation

[24] = target: T14, CYP1A2 (Homo sapiens, UniProt P05177); test: CYP inhibition assay; format: in vitro ADME; conditions: human liver microsomes
T14 construct: Human liver microsomes (0.25 mg/mL); from tissue; host or cells: human liver microsomes
Experimental: (§3) Human liver microsomes (0.25 mg/mL), 0.1 M phosphate buffer (pH 7.4), a cocktail of five […] substrates (Phenacetin 50 μM, Diclofenac 10 μM, S-mephenytoin 100 μM, Dextromethorphan 5 μM, Midazolam 2.5 μM), and test compound (10 μM concentration) was pre-incubated for 5 min at 37 °C. NADPH generation system solution was added and incubated for 15 min at 37 °C. In order to terminate the reaction, acetonitrile solution containing an internal standard (Terfenadine) was added and centrifuged for 5 min (14,000× g […], 4 °C). The supernatant was injected into the LC-MS/MS system to analyze the metabolites of the substrates simultaneously. Metabolites of each substrate produced during the reaction were analyzed using the Shimadzu Nexera XR system and TSQ vantage (Thermo). Kinetex C18 column (2.1 × 100 mm, 2.6 μm particle size; Phenomenex, USA) was used for HPLC. The mobile phase used contained 0.1% formic acid in distilled water (A) and 0.1% formic acid containing acetonitrile (B). The generated metabolites were quantified using MRM (Multiple Reaction Monitoring) and Xcalibur (version 1.6.1) was used for data analysis.

[25] = target: T15, CYP2C19 (Homo sapiens, UniProt P33261); test: CYP inhibition assay; format: in vitro ADME; conditions: human liver microsomes
T15 construct: Human liver microsomes (0.25 mg/mL); from tissue; host or cells: human liver microsomes
Experimental: as §3

[26] = target: T16, CYP2C9 (Homo sapiens, UniProt P11712); test: CYP inhibition assay; format: in vitro ADME; conditions: human liver microsomes
T16 construct: Human liver microsomes (0.25 mg/mL); from tissue; host or cells: human liver microsomes
Experimental: as §3

T9 sequence (P15056 whole entry): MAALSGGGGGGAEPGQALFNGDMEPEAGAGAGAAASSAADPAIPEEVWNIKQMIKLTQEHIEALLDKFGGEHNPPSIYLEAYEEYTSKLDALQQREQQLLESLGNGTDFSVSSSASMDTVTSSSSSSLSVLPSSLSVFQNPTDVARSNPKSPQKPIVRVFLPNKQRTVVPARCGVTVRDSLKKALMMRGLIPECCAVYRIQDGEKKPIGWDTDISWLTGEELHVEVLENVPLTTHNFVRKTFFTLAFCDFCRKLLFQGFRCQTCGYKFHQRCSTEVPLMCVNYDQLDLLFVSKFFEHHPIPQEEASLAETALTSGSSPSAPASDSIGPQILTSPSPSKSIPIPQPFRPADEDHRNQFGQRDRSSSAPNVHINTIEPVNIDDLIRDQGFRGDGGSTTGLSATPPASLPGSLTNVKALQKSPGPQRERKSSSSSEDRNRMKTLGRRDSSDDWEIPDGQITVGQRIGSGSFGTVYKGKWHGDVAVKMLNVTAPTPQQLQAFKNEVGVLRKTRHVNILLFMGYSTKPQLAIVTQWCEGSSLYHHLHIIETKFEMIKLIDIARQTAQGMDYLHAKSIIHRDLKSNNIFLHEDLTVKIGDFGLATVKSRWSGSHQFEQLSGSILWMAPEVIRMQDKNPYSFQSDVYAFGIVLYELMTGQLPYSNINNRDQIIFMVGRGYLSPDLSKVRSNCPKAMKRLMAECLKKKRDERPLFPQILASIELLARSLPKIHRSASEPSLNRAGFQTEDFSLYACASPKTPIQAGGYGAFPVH
T16 sequence (P11712 whole entry): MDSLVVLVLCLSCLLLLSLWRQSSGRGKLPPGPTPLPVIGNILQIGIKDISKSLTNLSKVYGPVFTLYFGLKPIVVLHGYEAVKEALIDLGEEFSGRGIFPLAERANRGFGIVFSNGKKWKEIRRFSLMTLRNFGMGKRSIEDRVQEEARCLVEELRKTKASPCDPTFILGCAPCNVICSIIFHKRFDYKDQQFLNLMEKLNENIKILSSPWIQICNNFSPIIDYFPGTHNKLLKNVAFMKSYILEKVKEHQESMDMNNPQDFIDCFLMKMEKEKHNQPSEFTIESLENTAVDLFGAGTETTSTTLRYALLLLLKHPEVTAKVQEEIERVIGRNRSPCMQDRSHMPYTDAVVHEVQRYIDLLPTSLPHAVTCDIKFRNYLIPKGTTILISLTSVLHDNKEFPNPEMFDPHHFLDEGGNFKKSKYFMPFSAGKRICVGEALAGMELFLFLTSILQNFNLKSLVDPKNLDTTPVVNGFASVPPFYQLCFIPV
T15 sequence (P33261 whole entry): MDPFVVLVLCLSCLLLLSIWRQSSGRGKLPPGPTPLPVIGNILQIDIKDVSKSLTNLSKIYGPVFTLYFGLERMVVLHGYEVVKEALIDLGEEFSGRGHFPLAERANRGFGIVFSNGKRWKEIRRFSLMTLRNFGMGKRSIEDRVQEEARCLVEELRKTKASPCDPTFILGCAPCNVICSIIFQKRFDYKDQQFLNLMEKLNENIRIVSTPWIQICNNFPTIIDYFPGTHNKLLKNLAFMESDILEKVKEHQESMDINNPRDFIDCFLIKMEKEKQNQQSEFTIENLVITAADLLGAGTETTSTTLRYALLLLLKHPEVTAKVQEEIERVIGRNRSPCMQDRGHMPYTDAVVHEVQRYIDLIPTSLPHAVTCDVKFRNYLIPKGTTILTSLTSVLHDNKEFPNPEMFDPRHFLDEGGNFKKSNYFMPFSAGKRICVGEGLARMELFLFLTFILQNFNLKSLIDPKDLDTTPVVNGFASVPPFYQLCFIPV
T12 sequence (O14965 whole entry): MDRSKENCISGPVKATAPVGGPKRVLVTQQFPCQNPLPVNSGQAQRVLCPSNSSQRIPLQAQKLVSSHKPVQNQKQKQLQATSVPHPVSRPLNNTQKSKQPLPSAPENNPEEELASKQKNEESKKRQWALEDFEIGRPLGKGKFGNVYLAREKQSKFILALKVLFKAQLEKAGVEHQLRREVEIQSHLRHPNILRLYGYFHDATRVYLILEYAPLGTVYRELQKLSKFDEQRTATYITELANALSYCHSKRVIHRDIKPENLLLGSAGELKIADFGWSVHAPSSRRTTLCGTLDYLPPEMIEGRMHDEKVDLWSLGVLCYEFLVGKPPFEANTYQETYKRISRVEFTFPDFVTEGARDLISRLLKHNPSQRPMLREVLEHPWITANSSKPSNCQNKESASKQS
T7 sequence (P10721 26-976): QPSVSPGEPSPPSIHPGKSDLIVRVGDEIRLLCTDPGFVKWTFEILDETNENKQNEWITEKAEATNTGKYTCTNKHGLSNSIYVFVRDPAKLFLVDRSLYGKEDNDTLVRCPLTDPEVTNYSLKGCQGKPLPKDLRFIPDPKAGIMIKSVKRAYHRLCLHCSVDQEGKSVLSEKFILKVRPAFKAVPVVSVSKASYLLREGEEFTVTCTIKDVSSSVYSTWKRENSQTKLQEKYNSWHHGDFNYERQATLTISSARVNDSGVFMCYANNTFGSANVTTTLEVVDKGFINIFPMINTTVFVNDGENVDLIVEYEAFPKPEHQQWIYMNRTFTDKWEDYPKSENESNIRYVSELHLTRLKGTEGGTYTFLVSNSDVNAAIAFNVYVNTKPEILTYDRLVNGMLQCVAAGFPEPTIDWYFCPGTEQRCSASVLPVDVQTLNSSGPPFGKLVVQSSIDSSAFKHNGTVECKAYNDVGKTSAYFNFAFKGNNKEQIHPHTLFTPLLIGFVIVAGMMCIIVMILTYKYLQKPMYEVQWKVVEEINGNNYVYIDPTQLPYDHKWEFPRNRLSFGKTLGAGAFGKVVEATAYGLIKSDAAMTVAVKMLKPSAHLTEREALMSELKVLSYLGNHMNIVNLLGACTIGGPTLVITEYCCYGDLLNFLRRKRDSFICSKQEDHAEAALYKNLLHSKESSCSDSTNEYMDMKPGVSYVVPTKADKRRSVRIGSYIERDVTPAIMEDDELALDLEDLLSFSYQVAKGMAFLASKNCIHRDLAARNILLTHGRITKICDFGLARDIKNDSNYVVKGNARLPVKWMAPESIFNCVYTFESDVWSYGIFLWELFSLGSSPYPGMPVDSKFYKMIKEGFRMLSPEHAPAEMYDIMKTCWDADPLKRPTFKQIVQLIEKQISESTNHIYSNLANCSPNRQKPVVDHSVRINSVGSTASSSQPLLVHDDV
T11 sequence (Q02750 whole entry): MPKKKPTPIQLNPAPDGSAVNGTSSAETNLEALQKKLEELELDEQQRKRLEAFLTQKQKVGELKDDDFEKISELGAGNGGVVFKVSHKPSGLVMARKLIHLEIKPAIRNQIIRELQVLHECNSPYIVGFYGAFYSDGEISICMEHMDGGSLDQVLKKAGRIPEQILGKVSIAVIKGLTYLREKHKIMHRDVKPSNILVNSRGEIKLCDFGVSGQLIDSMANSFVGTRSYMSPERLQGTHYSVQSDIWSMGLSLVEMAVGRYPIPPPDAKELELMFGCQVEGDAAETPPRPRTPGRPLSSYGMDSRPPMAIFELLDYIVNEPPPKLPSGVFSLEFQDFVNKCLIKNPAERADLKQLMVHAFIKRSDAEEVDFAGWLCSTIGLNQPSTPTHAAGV
T8 sequence (Q05397 whole entry): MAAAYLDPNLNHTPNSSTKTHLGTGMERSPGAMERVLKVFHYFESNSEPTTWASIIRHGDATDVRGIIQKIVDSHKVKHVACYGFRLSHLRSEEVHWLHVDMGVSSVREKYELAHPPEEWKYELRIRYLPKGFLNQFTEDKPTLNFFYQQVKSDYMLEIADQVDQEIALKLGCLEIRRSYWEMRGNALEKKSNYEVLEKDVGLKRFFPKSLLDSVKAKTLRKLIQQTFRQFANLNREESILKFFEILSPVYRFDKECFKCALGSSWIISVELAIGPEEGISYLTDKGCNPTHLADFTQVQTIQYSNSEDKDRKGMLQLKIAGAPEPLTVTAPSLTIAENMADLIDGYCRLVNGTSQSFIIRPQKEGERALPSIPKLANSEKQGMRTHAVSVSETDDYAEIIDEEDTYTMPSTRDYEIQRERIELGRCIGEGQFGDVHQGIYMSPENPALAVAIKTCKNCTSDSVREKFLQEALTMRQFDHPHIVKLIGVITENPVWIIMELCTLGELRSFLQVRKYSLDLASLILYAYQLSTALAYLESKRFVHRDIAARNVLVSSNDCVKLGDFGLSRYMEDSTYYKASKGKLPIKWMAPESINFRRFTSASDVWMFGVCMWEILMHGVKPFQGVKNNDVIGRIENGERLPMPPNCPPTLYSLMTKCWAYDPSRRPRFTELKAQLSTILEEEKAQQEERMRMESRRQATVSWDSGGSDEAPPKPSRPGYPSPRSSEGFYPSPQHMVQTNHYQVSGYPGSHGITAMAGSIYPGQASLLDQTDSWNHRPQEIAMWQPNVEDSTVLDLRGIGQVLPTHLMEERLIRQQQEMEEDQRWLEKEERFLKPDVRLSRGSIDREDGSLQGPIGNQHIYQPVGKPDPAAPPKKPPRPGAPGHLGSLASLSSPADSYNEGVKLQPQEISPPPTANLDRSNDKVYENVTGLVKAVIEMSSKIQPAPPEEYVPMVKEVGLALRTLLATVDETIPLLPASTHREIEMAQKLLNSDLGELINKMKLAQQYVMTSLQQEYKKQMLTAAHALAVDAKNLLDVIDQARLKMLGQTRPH
T4 sequence (Q15759 whole entry): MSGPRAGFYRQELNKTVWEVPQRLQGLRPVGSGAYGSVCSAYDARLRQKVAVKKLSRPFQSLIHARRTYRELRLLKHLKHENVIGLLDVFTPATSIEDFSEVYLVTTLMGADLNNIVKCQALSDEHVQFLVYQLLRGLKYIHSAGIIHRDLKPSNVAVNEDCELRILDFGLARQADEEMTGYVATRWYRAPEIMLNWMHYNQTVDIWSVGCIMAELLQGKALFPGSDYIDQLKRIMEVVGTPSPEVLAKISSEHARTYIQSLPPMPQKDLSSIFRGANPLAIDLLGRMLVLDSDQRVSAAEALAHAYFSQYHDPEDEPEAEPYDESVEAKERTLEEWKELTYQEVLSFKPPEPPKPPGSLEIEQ

## C#Cc1cn([C@@H]2S[C@H](CO)[C@@H](O)[C@H]2O)c2ncnc(N)c12 [Compound 1g, (2R,3R,4S,5R)-2-(4-Amino-5-ethynyl-7H-pyrrolo[2,3-d]pyrimidin-7-yl)-5-(hydroxymethyl)tetrahydrothiophene-3,4-diol]
[1]
  IC50: 50 nM
[2]
  IC50: 30 nM
[3]
  IC50: 30 nM
[4]
  IC50: 4 nM
[5]
  IC50: 60 nM
[6]
  IC50: 50 nM
[7]
  Metabolic Stability (%): 82.3%
[8]
  IC50: > 20000 nM
[9]
  IC50: 70 nM
[10]
  inhibition at 1 µM: 7%
[11]
  inhibition at 1 µM: 65%
[12]
  inhibition at 1 µM: 3%
[13]
  inhibition at 1 µM: 39%
[14]
  inhibition at 1 µM: 0%
[15]
  inhibition at 1 µM: 1%
[16]
  inhibition at 1 µM: 0%
[17]
  inhibition at 1 µM: 0%
[18]
  inhibition at 1 µM: 1%
[19]
  inhibition at 1 µM: 74%
[20]
  inhibition at 1 µM: 22%
[21]
  IC50: 4 to 60 nM
[22]
  IC50: 150 nM
[23]; 11-point 3-fold serial dilution
  IC50: 43 nM
[23]; by Cheng-Prusoff equation
  Ki: 86 nM
[24]
  IC50: > 20000 nM
[25]
  IC50: > 20000 nM
[26]
  IC50: > 20000 nM
